This is an account of results in patent US10273279B2, “Protease activated receptor-1 (PAR1) derived cytoprotective polypeptides and related methods” (THE SCRIPPS RESEARCH INSTITUTE, priority 2011, dated 2019).

Test [1] addresses T1, synthetic PAR1 peptide (TR33-62) (Homo sapiens, UniProt P25116).
T1 construct: purchased Biosynthesis; host or cells: chemical synthesis
T1 sequence (P25116 33-62 limits assumed): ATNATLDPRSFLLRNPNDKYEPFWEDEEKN
As to the kind of experiment: Cleavage of synthetic PAR1 peptide TR33-62 by APC or thrombin, reverse phase HPLC and MALDI-TOF. Format: biochemical. As to conditions: APC 500 nM or thrombin 5 nM, TR33-62 100 μM, HBS pH 7.4. The source says: Samples were subjected to reverse phase HPLC on a C18 column while the eluent was monitored at 214 nm during a 0%-67% gradient of acetonitrile in water containing 0.1% trifluoroacetic acid. Peptide fragments were collected and subjected to MALDI-TOF (Scripps mass spectrometry core facility) analysis.

Test [2] deals with T2, endogenous PAR1 on EA.hy.926 endothelial cells (Homo sapiens, UniProt P25116).
T2 construct: untransfected EA.hy.926 endothelial cells expressing endogenous EPCR and PAR1; host or cells: EA.hy.926 endothelial cells
T2 sequence (P25116 22-425): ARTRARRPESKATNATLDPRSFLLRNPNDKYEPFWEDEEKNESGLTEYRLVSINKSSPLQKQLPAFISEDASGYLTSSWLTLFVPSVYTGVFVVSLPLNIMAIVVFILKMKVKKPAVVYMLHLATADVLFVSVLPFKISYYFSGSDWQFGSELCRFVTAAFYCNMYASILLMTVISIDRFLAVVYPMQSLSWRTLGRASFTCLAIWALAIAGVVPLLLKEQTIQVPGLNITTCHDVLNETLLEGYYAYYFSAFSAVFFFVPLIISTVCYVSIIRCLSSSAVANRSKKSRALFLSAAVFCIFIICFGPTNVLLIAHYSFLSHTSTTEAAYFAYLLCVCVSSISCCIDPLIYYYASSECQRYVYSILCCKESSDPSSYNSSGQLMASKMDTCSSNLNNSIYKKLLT
As to the kind of experiment: On cell Western (OCW) immunoassay of PAR1 cleavage on EA.hy.926 endothelial cells. The format is cell-based. As to conditions: 1 hr at 4° C., 0.5 nM thrombin or 25 nM APC. Here is the method: Subsequently, these antibodies were used in an on cell Western (OCW) immunoassay on EA.hy.926 endothelial cells to determine whether APC cleaves PAR1 at Arg^46 in the presence of endogenous PAR1 and EPCR expression. […] Incubations were performed at 4° C. to minimize receptor recycling and internalization. After fixation and staining, antibody signals were normalized for total cell number using the cell permeable nuclear dye Draq5 and antibody signals for the goat anti-PAR1 antibodies (Ab87 and Origene) and ATAP2 were expressed as a fraction of the signal obtained for WEDE15 reflecting the total PAR1 present on the cell surface.
Detailed methods and steps used for the study shown in FIG. 5 are as follows: EA.hy.926 cells (ATCC: CRL-2922) were grown in black clear bottom 96 well plates (Nunc) in DMEM (Invitrogen #12430) supplemented with glutamax (Invitrogen #35050) and 10% FBS (Hyclone #35-011-CV) in a 37° C. cell incubator with a humidified atmosphere and 5% CO2 in air until confluency. […] After final washing with PBS/0.1% Tween, IR fluorescence of bound antibodies was determined using the Odyssey (Licor). Background fluorescence was determined by omitting the primary antibody and subtracting background values from all observed values.

Test [3] has as its system EA.hy.926 endothelial cells. As to the kind of experiment: Staurosporine-induced endothelial cell apoptosis (Apopercentage dye). Format: cell-based, human. As to conditions: 4 hrs pretreatment, 50 μM NPND, 50 μM scr-NPND or 10 μM TFLL, staurosporine 10 μM. As for the experimental part: Activated Protein C (APC) conveys anti-apoptotic activity to EA.hy.926 cells that requires functional PAR1 receptor and APC binding to the endothelial protein C receptor (EPCR). See, e.g., Mosnier at al., Biochem J. 2003; 373:65-70; and Mosnier at al., Blood. 2007; 109:3161-3172.
Methods: EA.hy.926 cells (ATCC: CRL-2922) were grown in 24 well plates in DMEM (Invitrogen #12430) supplemented with glutamax (Invitrogen #35050) and 10% FBS (Hyclone #35-011-CV) in a 37° C. cell incubator with a humidified atmosphere and 5% CO2 in air until confluency. Cells were treated for 4 hrs with vehicle control, 50 μM NPND, 50 μM scr-NPND or 10 μM TFLL after which staurosporine (10 μM) and the Apopercentage dye (Biocolor) were added according the manufacturer's instructions. After 1 hr cells were washed with 2×1 ml PBS and 110 μl of the dye release agent was added to the cells. Subsequently 100 μl aliquots were transferred to a black 96 well plate and fluorescence was measured (530 nm excitation/580 nm emission). Apoptosis was expressed as a percentage of cells treated with 10 mM H2O2 for which apoptosis was set at 100%.

Consider thrombin, for which the “cleavage sites in TR33-62 peptide” value in test [1] is “cleavage at Arg^41”. Besides, in test [2], the “decrease of ATAP2 signal compared to WEDE15” value is listed as “not significantly different”.

Consider “NPNDKYEPFWEDEEKNESGL (listed as Homo sapiens) [TR47-66]”, for which the “inhibition of staurosporine-induced endothelial cell apoptosis” value in test [3] is “significantly inhibited”; in test [3] (listed as NPND-peptide) it was “inhibited staurosporine-induced endothelial cell apoptosis”.

For the substance “APC: Activated Protein C, serine protease with anticoagulant and cytoprotective cell signaling activities”, the “cleavage sites in TR33-62 peptide” value in test [1] is reported as “cleaves this PAR1 peptide at Arg^46 as well as at Arg^41”. Besides, the “decrease of ATAP2 signal compared to WEDE15” value in test [2] is listed as 50%.

For “GDENENEKPNWYELKEPDSF (scrambled sequence) [scr-TR47-66, control scrambled TR47-66 peptide containing scrambled residues 47-66, reference compound]”, the “inhibition of staurosporine-induced endothelial cell apoptosis” value in test [3] is on record as “did not convey detectable anti-apoptotic effects”.
